Data taken from patent publication US10689381B2 (priority 2017, dated 2020).
Like-named read-outs stand apart in the source and are kept apart here.

Assays:
HCT116 = assay: cells; assay type: cell-based, human; conditions: for IC50: read-out: IC50 HCT116
Method in brief: (§1)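 Compound exposure ran 72 h at six concentrations (0–1000 nM or 0–10000 nM, duplicate) on cells plated at 30,000 cells/mL in 10% FBS DMEM. A closing 37 °C incubation took 15 min (HCT116) or 5 min (L1210).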

L1210 = assay: cells; assay type: cell-based, mouse
Method in brief: as §1

[1] = vinblastine-sensitive cell lines

Structure (SMILES): CC[C@]1(NC(=O)/C=C/c2ccsc2)C[C@H]2CN(CCc3c([nH]c4ccccc34)[C@@](C(=O)OC)(c3cc4c(cc3OC)N(C)[C@H]3[C@@](O)(C(=O)OC)[C@H](OC(C)=O)[C@]5(CC)C=CCN6CC[C@]43[C@@H]65)C2)C1 [Compound 114]
- IC50 (HCT116; Table 3): 0.6 nM
- IC50 (L1210; Table 3): 0.5 nM

Structure (SMILES): CCC1(NC(=O)c2cccc3ccccc23)CC2CN(CCc3c([nH]c4ccccc34)C(C(=O)OC)(c3cc4c(cc3OC)N(C)C3C(O)(C(=O)OC)C(OC(C)=O)C5(CC)C=CCN6CCC43C65)C2)C1 (stereo not shown) [Compound 115]
- IC50 (HCT116; Table 4): 65 nM
- potency relative to vinblastine (less potent / reduced activity) (HCT116; [1]): roughly 10 fold
- IC50 (L1210; Table 4): 60 nM

Structure (SMILES): CCC1(NC(=O)c2ccc3ccccc3c2)CC2CN(CCc3c([nH]c4ccccc34)C(C(=O)OC)(c3cc4c(cc3OC)N(C)C3C(O)(C(=O)OC)C(OC(C)=O)C5(CC)C=CCN6CCC43C65)C2)C1 (stereo not shown) [Compound 116]
- IC50 (HCT116; Table 4): 2.3 nM
- potency relative to vinblastine (more potent) (HCT116; [1]): approximately 3 fold
- IC50 (L1210; Table 4): 1.9 nM

Structure (SMILES): CCC1(NC(=O)c2ccc3cc(N)ccc3c2)CC2CN(CCc3c([nH]c4ccccc34)C(C(=O)OC)(c3cc4c(cc3OC)N(C)C3C(O)(C(=O)OC)C(OC(C)=O)C5(CC)C=CCN6CCC43C65)C2)C1 (stereo not shown) [Compound 117]
- IC50 (HCT116; Table 4): 0.8 nM
- IC50 (L1210; Table 4): 0.7 nM

Structure (SMILES): CCC1(NC(=O)c2ccc3cc(NC(=O)OC(C)(C)C)ccc3c2)CC2CN(CCc3c([nH]c4ccccc34)C(C(=O)OC)(c3cc4c(cc3OC)N(C)C3C(O)(C(=O)OC)C(OC(C)=O)C5(CC)C=CCN6CCC43C65)C2)C1 (stereo not shown) [Compound 118]
- IC50 (HCT116; Table 4): 6.5 nM
- IC50 (L1210; Table 4): 5 nM

Structure (SMILES): CCC1(NC(=O)c2ccc3cc(OC)ccc3c2)CC2CN(CCc3c([nH]c4ccccc34)C(C(=O)OC)(c3cc4c(cc3OC)N(C)C3C(O)(C(=O)OC)C(OC(C)=O)C5(CC)C=CCN6CCC43C65)C2)C1 (stereo not shown) [Compound 119]
- IC50 (HCT116; Table 4): 3.5 nM
- IC50 (L1210; Table 4): 2.5 nM

Structure (SMILES): CCC1(NC(=O)c2ccc3cccc(OC)c3c2)CC2CN(CCc3c([nH]c4ccccc34)C(C(=O)OC)(c3cc4c(cc3OC)N(C)C3C(O)(C(=O)OC)C(OC(C)=O)C5(CC)C=CCN6CCC43C65)C2)C1 (stereo not shown) [Compound 120]
- IC50 (HCT116; Table 4): 13 nM
- IC50 (L1210; Table 4): 10 nM

Structure (SMILES): CCC1(NC(=O)c2ccc3c(c2)C(C)(C)CCC3(C)C)CC2CN(CCc3c([nH]c4ccccc34)C(C(=O)OC)(c3cc4c(cc3OC)N(C)C3C(O)(C(=O)OC)C(OC(C)=O)C5(CC)C=CCN6CCC43C65)C2)C1 (stereo not shown) [Compound 123]
- IC50 (HCT116; Table 4): 7.8 nM
- IC50 (L1210; Table 4): 7.4 nM

Structure (SMILES): CCC1(NC(=O)c2ccc3c(c2)CCC3)CC2CN(CCc3c([nH]c4ccccc34)C(C(=O)OC)(c3cc4c(cc3OC)N(C)C3C(O)(C(=O)OC)C(OC(C)=O)C5(CC)C=CCN6CCC43C65)C2)C1 (stereo not shown) [Compound 124]
- IC50 (HCT116; Table 4): 5.6 nM
- potency relative to vinblastine (more potent) (HCT116; [1]): about 2 fold
- IC50 (L1210; Table 4): 5 nM

Structure (SMILES): CCC1(NC(=O)C2Cc3ccccc3C2)CC2CN(CCc3c([nH]c4ccccc34)C(C(=O)OC)(c3cc4c(cc3OC)N(C)C3C(O)(C(=O)OC)C(OC(C)=O)C5(CC)C=CCN6CCC43C65)C2)C1 (stereo not shown) [Compound 125]
- IC50 (HCT116; Table 4): 15 nM
- IC50 (L1210; Table 4): 30 nM

Structure (SMILES): CCC1(NC(=O)c2ccc3c(c2)CCCCC3)CC2CN(CCc3c([nH]c4ccccc34)C(C(=O)OC)(c3cc4c(cc3OC)N(C)C3C(O)(C(=O)OC)C(OC(C)=O)C5(CC)C=CCN6CCC43C65)C2)C1 (stereo not shown) [Compound 126]
- IC50 (HCT116; Table 4): 4.8 nM
- IC50 (L1210; Table 4): 6.1 nM

Structure (SMILES): CC[C@]1(NC(=O)c2ccc3cc4ccccc4cc3c2)C[C@H]2CN(CCc3c([nH]c4ccccc34)[C@@](C(=O)OC)(c3cc4c(cc3OC)N(C)[C@H]3[C@@](O)(C(=O)OC)[C@H](OC(C)=O)[C@]5(CC)C=CCN6CC[C@]43[C@@H]65)C2)C1 [Compound 127]
- IC50 (HCT116; Table 4): 60 nM
- IC50 (L1210; Table 4): 40 nM

Structure (SMILES): CCC1(NC(=O)c2ccncc2)CC2CN(CCc3c([nH]c4ccccc34)C(C(=O)OC)(c3cc4c(cc3OC)N(C)C3C(O)(C(=O)OC)C(OC(C)=O)C5(CC)C=CCN6CCC43C65)C2)C1 (stereo not shown) [Compound 128]
- IC50 (HCT116; Table 5): 0.4 nM
- IC50 (L1210; Table 5): 0.4 nM

Structure (SMILES): CCC1(NC(=O)c2cccnc2)CC2CN(CCc3c([nH]c4ccccc34)C(C(=O)OC)(c3cc4c(cc3OC)N(C)C3C(O)(C(=O)OC)C(OC(C)=O)C5(CC)C=CCN6CCC43C65)C2)C1 (stereo not shown) [Compound 129]
- IC50 (HCT116; Table 5): 0.6 nM
- IC50 (L1210; Table 5): 0.7 nM

Structure (SMILES): CCC1(NC(=O)c2ccccn2)CC2CN(CCc3c([nH]c4ccccc34)C(C(=O)OC)(c3cc4c(cc3OC)N(C)C3C(O)(C(=O)OC)C(OC(C)=O)C5(CC)C=CCN6CCC43C65)C2)C1 (stereo not shown) [Compound 130]
- IC50 (HCT116; Table 5): 50 nM
- IC50 (L1210; Table 5): 55 nM

Structure (SMILES): CC[C@]1(NC(=O)c2cnccn2)C[C@H]2CN(CCc3c([nH]c4ccccc34)[C@@](C(=O)OC)(c3cc4c(cc3OC)N(C)[C@H]3[C@@](O)(C(=O)OC)[C@H](OC(C)=O)[C@]5(CC)C=CCN6CC[C@]43[C@@H]65)C2)C1 [Compound 131]
- IC50 (HCT116; Table 5): 20 nM
- IC50 (L1210; Table 5): 40 nM

Structure (SMILES): CC[C@]1(NC(=O)c2ccnnc2)C[C@H]2CN(CCc3c([nH]c4ccccc34)[C@@](C(=O)OC)(c3cc4c(cc3OC)N(C)[C@H]3[C@@](O)(C(=O)OC)[C@H](OC(C)=O)[C@]5(CC)C=CCN6CC[C@]43[C@@H]65)C2)C1 [Compound 132]
- IC50 (HCT116; Table 5): 9 nM
- IC50 (L1210; Table 5): 30 nM
